Data reported in the supplement of paper PMC10307832.

Assays:
Assay in all cases: relative viability (nuclei count vs DMSO), 5 days (fraction); higher = more cells survive
[1] = compound: N#CC[C@H](C1CCCC1)n1cc(-c2ncnc3[nH]ccc23)cn1 [Ruxolitinib] + CC(=O)Nc1cccc(-n2c(=O)n(C3CC3)c(=O)c3c(Nc4ccc(I)cc4F)n(C)c(=O)c(C)c32)c1 [Trametinib] (partner 0.02 µM)
Procedure, shortened: (§1)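 Each reported value is a median over duplicate plates. It expresses relative viability: treated-well nuclei count divided by vehicle-well nuclei count. Lung cancer cell lines in 1536-well plates were dosed by pin tool a day after seeding, alone with one drug or with a fixed anchor-drug dose plus five library-drug doses (not always all listed) in √10 steps, and nuclei were counted after 5 days.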

[2] = compound: CS(=O)(=O)c1ccc(-c2cnc(N)c(C(=O)Nc3ccccc3)n2)cc1 [VE-821] + CC1(C)CCC(c2ccc(Cl)cc2)=C(CN2CCN(c3ccc(C(=O)NS(=O)(=O)c4ccc(N[C@H](CCN5CCOCC5)CSc5ccccc5)c(S(=O)(=O)C(F)(F)F)c4)cc3)CC2)C1 [Navitoclax] (partner 0.5 µM)
Procedure, shortened: as §1

[3] = compound: CS(=O)(=O)c1ccc(C(=O)Nc2ccc(Cl)c(-c3ccccn3)c2)c(Cl)c1 [Vismodegib] + COc1cccc2cc(-c3nc([C@H]4CC[C@H](C(=O)O)CC4)n4ncnc(N)c34)[nH]c12 [OSI-027] (partner 0.5 µM)
Procedure, shortened: as §1

[4] = compound: N#CC[C@H](C1CCCC1)n1cc(-c2ncnc3[nH]ccc23)cn1 [Ruxolitinib] + C[C@]1(O)C[C@@H](c2nc(-c3ccc4ccc(-c5ccccc5)nc4c3)c3c(N)nccn32)C1 [Linsitinib] (partner 1 µM)
Procedure, shortened: as §1

Row | Cell Line | relative viability ([1]; first compound 0.08 µM) | relative viability ([1]; first compound 0.253 µM) | relative viability ([1]; first compound 0.8 µM) | relative viability ([1]; first compound 2.53 µM) | relative viability ([1]; first compound 8 µM) | relative viability ([2]; first compound 0.08 µM) | relative viability ([2]; first compound 0.253 µM) | relative viability ([2]; first compound 0.8 µM) | relative viability ([2]; first compound 2.53 µM) | relative viability ([2]; first compound 8 µM) | relative viability ([3]; first compound 0.08 µM) | relative viability ([3]; first compound 0.253 µM) | relative viability ([3]; first compound 0.8 µM) | relative viability ([3]; first compound 2.53 µM) | relative viability ([3]; first compound 8 µM) | relative viability ([4]; first compound 0.08 µM) | relative viability ([4]; first compound 0.253 µM) | relative viability ([4]; first compound 0.8 µM) | relative viability ([4]; first compound 2.53 µM) | relative viability ([4]; first compound 8 µM)
1 | NCI-H1650 | 0.331 | 0.597 | 0.628 | 0.27 | 0.541 | 1.45 | 1.25 | 0.725 | 1.29 | 0.751 | 0.652 | 0.562 | 0.577 | 0.555 | 0.729 |  |  |  |  | 
2 | NCI-H2023 | 0.57 | 0.524 | 0.654 | 0.4 | 0.565 | 1.01 | 1.02 | 0.808 | 0.686 | 0.296 | 0.464 | 0.354 | 0.411 | 0.322 | 0.478 | 0.689 | 0.589 | 0.722 | 0.683 | 0.672
3 | SK-LU-1 | 0.5 | 0.578 | 0.548 | 0.3 | 0.408 | 0.781 | 0.871 | 0.744 | 0.366 | 0.247 | 0.414 | 0.39 | 0.384 | 0.401 | 0.345 | 1.16 | 1.19 | 1.27 | 0.974 | 0.945
4 | NCI-H2347 | 0.296 | 0.272 | 0.287 | 0.247 | 0.334 | 0.941 | 0.809 | 0.775 | 0.959 | 0.763 | 0.568 | 0.454 | 0.304 | 0.425 | 0.454 | 0.893 | 0.939 | 1.05 | 0.886 | 0.965
5 | NCI-H727 | 0.406 | 0.407 | 0.413 | 0.416 | 0.453 | 0.478 | 0.57 | 0.411 | 0.546 | 0.216 | 0.57 | 0.451 | 0.446 | 0.528 | 0.655 | 0.283 | 0.272 | 0.237 | 0.228 | 0.427
6 | COR-L23 | 0.766 | 0.616 | 0.878 | 0.276 | 0.508 | 1.05 | 1.01 | 1.23 | 1.15 | 0.894 | 0.753 | 0.743 | 0.742 | 0.793 | 0.751 | 0.919 | 0.92 | 0.95 | 0.833 | 0.671
7 | NCI-H2126 | 0.559 | 0.543 | 0.607 | 0.58 | 0.664 | 0.897 | 0.821 | 0.833 | 0.815 | 0.699 | 0.793 | 0.759 |  | 0.69 | 0.604 | 0.701 | 0.725 | 0.731 | 0.744 | 0.702
8 | NCI-H1703 |  |  |  |  |  | 1.25 | 0.923 | 1.17 | 0.394 | 0.246 |  |  |  |  |  | 1.07 | 0.624 | 1.25 | 0.451 | 0.547
9 | H3255 |  | 0.548 | 0.725 | 0.465 | 0.648 | 0.563 | 0.485 | 0.571 | 0.56 | 0.425 | 0.58 | 0.634 | 0.701 | 0.579 | 0.522 | 0.464 | 0.887 | 1.17 | 0.706 | 0.86
10 | NCI-H358 | 0.144 | 0.12 | 0.138 | 0.0972 | 0.148 |  |  |  |  |  | 0.775 | 0.711 | 0.8 | 0.807 | 0.853 | 0.716 | 0.629 | 0.803 | 0.514 | 0.544
11 | ABC-1 |  |  |  |  |  |  |  |  |  |  | 0.638 | 0.392 | 0.581 | 0.403 | 0.52 | 0.983 | 0.705 | 0.865 | 0.97 | 0.871
12 | NCI-H661 | 0.661 | 0.619 | 0.685 | 0.432 | 0.52 |  |  |  |  |  | 0.735 | 0.705 | 0.723 | 0.738 | 0.731 | 0.598 | 0.639 | 0.708 | 0.498 | 0.591
13 | NCI-H1648 | 0.548 | 0.517 | 0.62 | 0.416 | 0.74 |  |  |  |  |  | 0.22 | 0.27 | 0.29 | 0.258 | 0.207 |  |  |  |  | 
14 | A549 |  |  |  |  |  | 1.48 | 1.21 | 1.18 | 1.04 | 0.544 |  |  |  |  |  | 0.594 | 0.576 | 0.896 | 0.558 | 0.675
15 | NCI-H1563 |  |  |  |  |  |  |  |  |  |  | 0.757 | 0.734 | 0.767 | 0.694 | 0.809 | 1.18 | 1.21 | 1.25 | 1.16 | 1.09
16 | NCI-H2170 | 0.868 | 0.895 | 0.879 | 0.867 | 0.933 | 0.598 | 0.561 | 0.512 | 0.554 | 0.323 | 0.658 | 0.609 | 0.686 | 0.723 | 0.699 |  |  |  |  | 
17 | NCI-H1623 |  |  |  |  |  |  |  |  |  |  | 0.476 | 0.415 | 0.461 | 0.419 | 0.456 |  |  |  |  | 
18 | IA-LM |  |  |  |  |  | 0.855 | 0.71 | 0.755 | 0.92 | 0.527 |  |  |  |  |  | 0.652 | 0.662 | 0.719 | 0.518 | 0.469
19 | NCI-H522 | 0.729 | 0.767 | 0.964 | 0.678 | 0.708 |  |  |  |  |  | 0.805 | 0.742 | 0.672 | 0.659 | 0.812 |  |  |  |  | 
20 | EBC-1 |  |  |  |  |  | 0.44 | 0.412 | 0.399 | 0.254 | 0.221 |  |  |  |  |  | 0.831 | 1.1 | 1.06 | 0.783 | 0.823
21 | Calu-6 |  |  |  |  |  | 0.845 | 0.828 | 0.791 | 0.648 | 0.35 |  |  |  |  |  | 0.94 | 0.923 | 1.01 |  | 0.882
22 | NCI-H650 | 0.972 | 1.05 | 0.935 | 0.681 | 0.962 |  |  |  |  |  | 0.604 | 0.513 | 0.454 | 0.511 | 0.491 |  | 0.795 | 1.11 | 0.677 | 0.55
